Measurements from patent publication US9630941B2 (priority 2008, dated 2017).

Tests used:
[1] = Aqueous solubility, pH dependent; assay type: physicochemical
[2] = Chemical stability pH dependent at 25° C.; assay type: physicochemical
Experimental: B. Chemical Stability pH Dependent at 25° C.

[3] = Thermal stability, 120° C. for 10 min; assay type: physicochemical; details: for CBN content of the sample after heating / Drug remaining / THC content of the sample after heating / Drug remaining (%): 120° C. for 10 min; for Drug remaining (%): % of initial; for CBN content of the sample, initial / Initial, μg (drug itself) / THC content of the sample, initial: before heating
Experimental: C. Thermal Stability—120° C. for 10 min.

[4] = Bioreversion: plasma stability, porcine plasma; assay type: in vitro ADME
[5] = Bioreversion: plasma stability, rabbit plasma; assay type: in vitro ADME
[6] = Porcine buccal tissue homogenate stability; assay type: in vitro ADME; details: protein concentration 2 mg/ml
Experimental: (§1) b. Porcine Buccal Tissue Homogenate Stability
(§2) Protein Concentration 2 mg/ml

[7] = Control (IPBS) stability for the buccal homogenate study; assay type: physicochemical
Experimental: as §1, §2

SMILES	Aqueous Solubility ([1]; pH 1.2) [µg/mL]	Aqueous Solubility ([1]; pH 2) [µg/mL]	Aqueous Solubility ([1]; pH 3) [µg/mL]	Aqueous Solubility ([1]; pH 4) [µg/mL]	First order rate constant ([2]; Buffer pH 5.0, 25° C.)	First order rate constant ([2]; Buffer pH 7.0, 25° C.)	First order rate constant ([2]; Buffer pH 9.0, 25° C.)	First order rate constant ([2]; Water, 25° C.)	Drug loading (%) [3] [%]	CBN content of the sample after heating [3] [µg]	Drug remaining [3] [µg]	THC content of the sample after heating [3] [µg]	Drug remaining (%) [3]	CBN content of the sample, initial [3] [µg]	Initial, μg (drug itself) [3] [µg]	THC content of the sample, initial [3] [µg]	K [4]	T1/2 [4] [min]	K [6]	K [7]	other results
CCCCCc1cc(OC(=O)C(N)CC(C)C)c2c(c1)OC(C)(C)C1CCC(C)=CC21 (stereo not drawn) [THC-Leucinate (8), Δ^9-THC-leucinate]	9.36 ± 0.11	23.71 ± 0.40	5.17 ± 0.60	1.95 ± 0.09	15.94 ± 3.38 ×10^−3 h^−1	85.91 ± 16.83 ×10^−3 h^−1	119.98 ± 33.51 ×10^−3 h^−1	8.51 ± 2.80 ×10^−3 h^−1	103.65 ± 4.12	20.27 ± 0.43	1383.29 ± 40.73	25.86 ± 0.83	(88.99 ± 0.92) %	16.34 ± 0.50	1554.80 ± 61.76	-6.13 ± 0.84	42.70 ± 3.58 ×10^−2 min^−1	1.629 ± 0.137	22.98 ± 1.49 ×10^−3 min^−1	5.49 ± 0.46 ×10^−3 min^−1	Aqueous Solubility ([1]; pH 1.2, listed as THC-Leucine): 21.89 ± 0.26 µM; Aqueous Solubility ([1]; pH 2, listed as THC-Leucine): 55.46 ± 0.93 µM; Aqueous Solubility ([1]; pH 3, listed as THC-Leucine): 12.08 ± 1.40 µM; Aqueous Solubility ([1]; pH 4, listed as THC-Leucine): 4.33 ± 0.20 µM; Aqueous Solubility ([1]; pH 5): 0.23 ± 0.03 µg/mL; Aqueous Solubility ([1]; pH 5, listed as THC-Leucine): 0.54 ± 0.06 µM; Aqueous Solubility ([1]; pH 6): 0.08 ± 0.01 µg/mL; Aqueous Solubility ([1]; pH 6, listed as THC-Leucine): 0.19 ± 0.02 µM; K [5]: 33.84 ± 10.92 ×10^−2 min^−1; T1/2 [5]: 2.160 ± 0.697 min; T1/2 [6]: 30.21 ± 1.95 min
CCCCCc1cc(OC(=O)CNC)c2c(c1)OC(C)(C)[C@@H]1CCC(C)=C[C@@H]21 [THC-Sarcosinate (7), Δ^9-THC-sarcosinate]	101.38 ± 29.22	151.75 ± 9.33	96.52 ± 2.84	50.74 ± 1.98	38.35 ± 4.32 ×10^−3 h^−1	605.61 ± 125.14 ×10^−3 h^−1	1209.25 ± 203.05 ×10^−3 h^−1	25.45 ± 21.99 ×10^−3 h^−1	79.82 ± 0.85	33.83 ± 0.97	841.38 ± 40.18	54.53 ± 3.35	(70.30 ± 4.10) %	40.05 ± 3.45	1197.24 ± 12.69	26.68 ± 3.80	63.16 ± 10.44 ×10^−2 min^−1	1.11 ± 0.18	37.36 ± 3.87 ×10^−3 min^−1	23.47 ± 1.60 ×10^−3 min^−1	Aqueous Solubility ([1]; pH 1.2, listed as THC-Sarcosine): 263.16 ± 75.84 µM; Aqueous Solubility ([1]; pH 2, listed as THC-Sarcosine): 393.89 ± 24.21 µM; Aqueous Solubility ([1]; pH 3, listed as THC-Sarcosine): 250.54 ± 7.38 µM; Aqueous Solubility ([1]; pH 4, listed as THC-Sarcosine): 131.70 ± 5.13 µM; Aqueous Solubility ([1]; pH 5): 7.14 ± 0.72 µg/mL; Aqueous Solubility ([1]; pH 5, listed as THC-Sarcosine): 18.54 ± 1.87 µM; Aqueous Solubility ([1]; pH 6): 0.53 ± 0.07 µg/mL; Aqueous Solubility ([1]; pH 6, listed as THC-Sarcosine): 1.38 ± 0.18 µM
CCCCCc1cc(OC(=O)[C@@H](N)Cc2ccc(O)cc2)c2c(c1)OC(C)(C)[C@@H]1CCC(C)=C[C@@H]21 [THC-Tyrosinate (11), Δ^9-THC-tyrosinate]	41.92 ± 2.14	15.76 ± 0.66	5.28 ± 1.78	0.73 ± 0.03	6.32 ± 3.14 ×10^−3 h^−1	25.02 ± 0.88 ×10^−3 h^−1	53.88 ± 11.36 ×10^−3 h^−1	9.40 ± 0.88 ×10^−3 h^−1	81.51 ± 4.28	24.42 ± 0.21	1138.93 ± 60.67	123.75 ± 2.69	(93.15 ± 0.06) %	35.68 ± 1.16	1222.61 ± 64.25	92.95 ± 3.08	93.53 ± 8.79 ×10^−2 min^−1	0.74 ± 0.07	21.52 ± 0.55 ×10^−3 min^−1	1.11 ± 0.04 ×10^−3 min^−1	Aqueous Solubility ([1]; pH 1.2, listed as THC-Tyrosine): 87.76 ± 4.48 µM; Aqueous Solubility ([1]; pH 2, listed as THC-Tyrosine): 33.00 ± 1.38 µM; Aqueous Solubility ([1]; pH 3, listed as THC-Tyrosine): 11.06 ± 3.73 µM; Aqueous Solubility ([1]; pH 4, listed as THC-Tyrosine): 1.52 ± 0.06 µM; T1/2 [6]: 32.21 ± 0.81 min
